Results on one compound are retold here after US20240165097A1, “PHARMACEUTICAL COMPOSITION FOR THE TREATMENT OF ALZHEIMER'S DISEASE OR DEMENTIA” (Heptares Therapeutics Limited, priority 2021, published 2024).

For this test, the system named is patients with mild-to-moderate AD. The test can be described thus: Example D: EEG and evoked response potentials. Format: in vivo, human. Here is the method: Exploratory pharmacodynamic endpoints (Cogstate tests and EEG/evoked response potential [ERP] biomarkers) were evaluated at screening (practice sessions) and baseline visits, and on Day 28±1. While this study was not powered to detect PD effects of small to moderate ESs, the study sample size provided approximately 80% power to detect a large ES of 0.97 for these endpoints using a significance level of 0.10.
Brain activity was measured at rest using EEG, and during presentation of auditory stimuli using ERPs. The following EEG and ERP parameters were examined because of their sensitivities in detecting brain activity abnormalities at rest and during cognitive processing in patients with AD (Dierks T, Ihl R, Frolich L, Maurer K. Psychiatry Res. 1993; 50(3):151-162; Hedges D, Janis R, Mickelson S, Keith C, Bennett D, Brown B L. Clin EEG Neurosci. 2016; 47(1):48-55; Pekkonen E. Audiol Neurootol. 2000; 5(3-4):216-224): • Resting state power in the delta, theta, alpha, beta and gamma frequency bands measured by EEG activity during eyes open and eyes closed conditions (3 minutes each). • ERP markers (approximately 45 minutes) • Mismatch negativity (MMN; sensory gating/change detection)—amplitude and latency • P300-P3a and P3b (attention and working memory updating)—amplitude and latency • 40 Hz auditory steady-state response (ASSR; gamma oscillations and synchrony)—gamma-band evoked power and phase locking
EEG and ERP markers were quantified using the following paradigms: • Resting state paradigm (6 minutes): EEGs were recorded while patients were sitting with their eyes open (3 minutes) and closed (3 minutes) for frequency band-power analyses in the delta, theta, alpha, beta, and gamma frequency bands. Primary dependent measure was mean normalised power at Cz electrode in the eyes open and closed conditions. • Passive auditory oddball paradigm (23 minutes): Patients were instructed to ignore auditory stimuli while viewing a silent movie. Patients listened to a pseudorandom sequence of 85 dB tones (5 msec rise/fall times, 500 msec stimulus onset asynchrony); 85% were standards (50 msec, 1 kHz) and 15% were deviants that differed in both duration and pitch (125 msec, 1.5 kHz). Event-related potentials were generated in response to standard and deviant waveforms. Deviant minus standard difference waves were generated. The primary dependent measures were MMN amplitude and latency at Fz and FCComp electrodes (an average of frontal electrodes). • 40 Hz ASSR paradigm (8 minutes): Gamma steady-state responses were assessed in response to 1 ms 85 dB white noise clicks presented in 500 ms trains at a frequency of 40 Hz, with an inter-train interval of 1 second. A total of 500 click trains were presented. The primary dependent measure was gamma-band—evoked power and gamma phase locking at Fz and FCComp electrodes. • Active auditory oddball paradigm (11 minutes): Patients listened to a pseudorandom sequence of 85 dB tones (5 msec rise/fall times, 1500 msec stimulus onset asynchrony); 80% were standards (50 msec, 1 kHz) and 20% were targets (500 msec, 0.5 kHz). Patients were instructed to press a button when they heard target stimuli. ERPs were generated in response to target tones (P3b). The primary dependent measures were P3b amplitude and latency at CPComp electrodes (an average of central and parietal electrodes).
Patient data were collected from a 64-electrode cap onto a qualified and validated study system operated by site personnel who were specifically trained and certified for the study. The EEGs obtained at each patient visit were reviewed qualitatively by the study EEG expert (who remained blinded to dose allocation) and feedback was provided directly to the relevant site personnel on an ongoing basis and within 2 days of the assessment, to minimise issues from inter-site variability and to ensure the highest possible levels of consistency and reproducibility with respect to the EEG procedures. […]

Take `CCOC(=O)N1C2CCC1CC(N1CCC3(CC1)CNC(=O)C3)C2` (stereo not drawn) [HTL0018318, ethyl 3-(3-oxo-2,8-diazaspiro[4.5]dec-8-yl)-8-azabicyclo[3.2.1]octane-8-carboxylate]: under “5 mg, Day 28”, the “MMN amplitude at Fz electrode, ES” value is listed as −0.84; the “MMN amplitude at Fz electrode, LSM difference from placebo” value is given as −0.82 uV; the “peak P3b latency at CPComp electrodes, ES” value is on record as −0.81; the “peak P3b latency at CPComp electrodes, LSM difference from placebo” value was -38 ms. Where the note is “15 mg, Day 28”, the “MMN amplitude at Fz electrode, ES” value is given as −0.64; the “MMN amplitude at Fz electrode, LSM difference from placebo” value was −0.63 uV; the “P3a amplitude at Fz electrode, ES” value is on record as −0.73; the “P3a amplitude at Fz electrode, LSM difference from placebo” value is reported as −0.84 uV. In addition, for the setting “15 mg, Day 28”, the “delta power at Cz electrode, eyes open, ES” value worked out at 0.75; the “delta power at Cz electrode, eyes open, LSM difference from placebo” value came to 3.8; the “peak P3b latency at CPComp electrodes” value is “no significant decrease”. The “P3b mean amplitude at CPComp electrodes, ESs” value (across all 3 doses) is on record as 0.22-0.44. Where the note is “all HTL0018318 doses”, the “MMN, mean ES” value turned out to be 0.6; the “P3b amplitude, ES” value is 0.33; the “P3b latency, ES” value was 0.42; the “eyes open delta power, mean ES” value was found to be 0.52. Further, under “all doses”, the “peak MMN latency” value is “No statistically significant improvements”. For the setting “any HTL0018318 dose”, the “40 Hz ASSR gamma-band evoked power or phase locking at Fz electrode” value is listed as “no significant effects”.
